# In patent publication EP4729511A1, “COMPOUND OR SALT THEREOF AND METHOD FOR PRODUCING SAME, COMPOSITION, HYDROGEN PEROXIDE REMOVER, AND CYTOTOXICITY INHIBITOR” (Nagase & Co., Ltd., priority 2023, dated 2024):
# Tests used:
# [1] = Evaluation of hydrogen peroxide removal (OxiSelect hydrogen peroxide assay kit, ADHP/HRP fluorescence); format: biochemical; details: as the amount of Compound A increased (doubling dilutions from 10 µM); 4 µM hydrogen peroxide solution; 30 minutes at room temperature; control (Compound A: 0 µM) set as 100%
# Method: The resulting Compound A (EGT-X) was subjected to several doubling dilutions from 10 µM with the buffer provided with a kit (OxiSelect hydrogen peroxide assay kit (manufactured by CELL BIOLABS, Inc.)), and 25 µL each of the resulting solutions was added to a 96 well plate. Also, a 4 µM solution in which hydrogen peroxide was diluted with the buffer provided with the kit was prepared, and 25 µL each of said solution was added to the 96 well plate. Further, a blank was prepared under the same conditions except for no hydrogen peroxide was added.
# Subsequently, according to the protocol described in the kit, 50 µL each of a mixture of ADHP (10-acetyl-3,7-dihydroxyphenoxazine) and HRP(horseradish peroxidase) provided with the kit was added thereto, and the resulting mixture was stirred. After incubated at room temperature for 30 minutes, the fluorescence intensity was measured under the condition of excitation wavelength of 530 nm and fluorescence wavelength of 590 nm. The blank value was subtracted from each measurement value to calculate each value. The percentage values when EGT-X was added were calculated based on the control (Compound A: 0 µM) value set as 100%, and the results were plotted in a graph. (Figures 3 and 4).
# HEK293 cells = test: Evaluation of cytotoxicity inhibition: hydrogen peroxide cytotoxicity against HEK293 cells in the presence of EGT-X (WST-1); format: cell-based; details: hydrogen peroxide 0.0015%, cultured 24 hours, WST-1 cell viability
# Method: After 24 hours, 50 µL each of EGT-X dissolved in a DMEM and hydrogen peroxide dissolved in a DMEM was added to the plate, so that the hydrogen peroxide concentration would be 0 for the control and 0.0015% for the others, and the EGT-X concentration would be those shown in Figures (Figures 5 and 6). […] The absorbance at 450 nm was measured.
smiles,measurement,setting,value
C[N+](C)(C)[C@@H](Cc1c[nH]c(Sc2[nH]c(=S)[nH]c2C[C@@H](C(=O)[O-])[N+](C)(C)C)n1)C(=O)[O-] [Compound A],amount of the residual hydrogen peroxide,[1],decreased
same,concentration of EGT-X in the presence of which the cytotoxicity caused by hydrogen peroxide was inhibited,HEK293 cells,≥ 125 µM
